Biological target: T1, human factor Xa (Homo sapiens, UniProt P00742)
T1 construct: Factor Xa is a serine endopeptidase composed of two disulfide-linked subunits; purchased Enzyme Research Laboratories
Experiment: chromogenic peptide substrate assay, inhibition of factor Xa
Assay type: biochemical
Conditions: human factor Xa 3 nM, chromogenic substrate S-2222, pH 7.8, room temperature; apparent Ki from IC50 by Cheng-Prusoff
Protocol: Factor Xa activity was measured spectrophotometrically in microtiter plates in a final volume of 150 μl using the following conditions: Inhibition of human factor Xa (Enzyme Research Laboratories) was tested at an enzyme concentration of 3 nM using the chromogenic substrate S-2222 (Chromogenix AB, Mölndal, Sweden) at […]. The reaction kinetics of the enzyme and the substrate were linear with both time and the enzyme concentration. The inhibitors were dissolved in DMSO and tested at various concentrations up to 100 μM. The inhibitors were diluted using HNPT buffer consisting of HEPES 100 mM, NaCl 140 mM, PEG 6000 0.1% and Tween 80 0.02%, pH 7.8. […] The velocity of the reaction was determined by the autoreader from the slope of the linear regression fit to 7 time points (1 minute). The initial velocity for each inhibitor concentration was determined by the slope of at least 4 time points in the linear phase by a linear regression fit […]. Apparent dissociation constants Ki were calculated according to Cheng and Prusoff [Cheng, Y. C.; Prusoff, W. H. Relationship between the inhibition constant (Ki) and the concentration of the inhibitor that causes 50 percent inhibition (IC50) of an enzyme reaction. Biochem. Pharmacol. 1973, 22, 3099-3108.] based on the IC50 and the respective Km, determined previously (Ki=IC50/(1+S/Km)). […]

T1 sequence (P00742 235-488 limits assumed): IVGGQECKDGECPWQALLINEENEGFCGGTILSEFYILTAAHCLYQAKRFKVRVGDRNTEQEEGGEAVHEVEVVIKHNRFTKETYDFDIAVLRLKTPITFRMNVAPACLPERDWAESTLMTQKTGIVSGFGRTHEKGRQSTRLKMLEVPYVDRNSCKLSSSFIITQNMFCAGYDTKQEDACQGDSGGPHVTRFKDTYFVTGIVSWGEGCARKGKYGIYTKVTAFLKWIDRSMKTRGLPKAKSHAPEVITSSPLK
T1 sequence (P00742 41-179 partner limits assumed): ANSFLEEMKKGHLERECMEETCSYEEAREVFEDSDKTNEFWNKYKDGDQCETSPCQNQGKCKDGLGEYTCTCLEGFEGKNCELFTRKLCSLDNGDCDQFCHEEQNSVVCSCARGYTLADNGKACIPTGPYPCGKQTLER

In the case of `O=C(Nc1ccc(-n2ccccc2=O)cc1F)[C@H]1C[C@H]1C(=O)Nc1ccc(Cl)cn1` (single isomer, unassigned) [Example 1.4 (1S,2R) enantiomer], the Ki is reported as 0.003 µM.
